What follows are compounds tested against T1, hCRTH2 (Homo sapiens, UniProt Q9Y5Y4) (assay: Radioligand binding assay ([3H]PGD2 competition, HEK-hCRTH2 membranes)). Conditions: [3H]PGD2 binding, values in text.
T1 construct: expressed in transfected cells; host or cells: HEK (human embryonic kidney) cells expressing hCRTH2; membrane preparation
T1 sequence (Q9Y5Y4 1-395): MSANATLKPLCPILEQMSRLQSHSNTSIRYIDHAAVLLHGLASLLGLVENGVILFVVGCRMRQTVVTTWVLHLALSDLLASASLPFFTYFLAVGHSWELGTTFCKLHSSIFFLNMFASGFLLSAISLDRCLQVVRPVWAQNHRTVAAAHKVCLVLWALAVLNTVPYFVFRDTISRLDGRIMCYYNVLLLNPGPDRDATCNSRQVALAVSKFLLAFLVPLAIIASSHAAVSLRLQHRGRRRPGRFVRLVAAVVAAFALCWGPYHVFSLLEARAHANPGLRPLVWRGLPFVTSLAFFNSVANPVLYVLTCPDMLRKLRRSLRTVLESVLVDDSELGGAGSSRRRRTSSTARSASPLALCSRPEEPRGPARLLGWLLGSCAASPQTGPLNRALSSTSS
Procedure, shortened: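 Competition binding with 3.0 nM [3H]PGD2 and 8-20 μg HEK-hCRTH2 membrane protein in 50 mM Tris-HCl pH 7.4, 1 mM EDTA, 2 mM MnCl2, 1% Me2SO, 60 min at room temperature. Nonspecific binding defined with 10 μM PGD2; bound radioactivity counted after filtration.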
Compound `C[C@@H](CCc1nc2cc(C(=O)N[C@H](C)c3ccc(F)cc3)ccc2nc1-c1ccc(F)cc1)CC(=O)O` [compound 438, (S)-5-(3-(4-fluorophenyl)-7-(((R)-1-(4-fluorophenyl)ethyl)carbamoyl)quinoxalin-2-yl)-3-methylpentanoic acid] has a Ki of 4.2 nM.

Same assay, conditions: [3H]PGD2 competition, Table B
Compound `CC(CCc1nc2cc(C(=O)N[C@H](C)c3ccc(F)cc3)ccc2nc1-c1ccc(F)cc1)CC(=O)O` (stereo partly drawn) [compound 432, 5-(3-(4-fluorophenyl)-7-(((R)-1-(4-fluorophenyl)ethyl)carbamoyl)quinoxalin-2-yl)-3-methylpentanoic acid] has a Ki of 0.1 to 2 nM. With `CC(CCc1nc2cc(C(=O)N[C@H]3CCCc4ccccc43)ccc2nc1-c1ccc(F)cc1)CC(=O)O` (stereo partly drawn) [compound 433, 5-(3-(4-fluorophenyl)-7-(((S)-1,2,3,4-tetrahydronaphthalen-1-yl)carbamoyl)quinoxalin-2-yl)-3-methylpentanoic acid] the Ki was 2.1 to 20 nM. Compound `C[C@@H](NC(=O)c1ccc2nc(-c3ccc(Cl)cc3)c(CCCCC(=O)O)nc2c1)c1ccc(F)cn1` [compound 434, (R)-5-(3-(4-chlorophenyl)-7-((1-(5-fluoropyridin-2-yl)ethyl)carbamoyl)quinoxalin-2-yl)pentanoic acid] has a Ki of 0.1 to 2 nM. For `C[C@H](NC(=O)c1ccc2nc(-c3ccc(Cl)cc3)c(CCCCC(=O)O)nc2c1)c1ccc(F)cn1` [compound 435, (S)-5-(3-(4-chlorophenyl)-7-((1-(5-fluoropyridin-2-yl)ethyl)carbamoyl)quinoxalin-2-yl)pentanoic acid], the Ki was 0.1 to 2 nM. `O=C(O)CCCCc1nc2cc(C(=O)N3CCn4c(nnc4C(F)(F)F)C3)ccc2nc1-c1ccc(Cl)cc1` [compound 436, 5-(3-(4-chlorophenyl)-7-(3-(trifluoromethyl)-5,6,7,8-tetrahydro-[1,2,4]triazolo[4,3-a]pyrazine-7-carbonyl)quinoxalin-2-yl)pentanoic acid] gave a Ki of 20.1 to 200 nM. Compound `C[C@H](CCc1nc2cc(C(=O)N[C@H](C)c3ccc(F)cc3)ccc2nc1-c1ccc(F)cc1)CC(=O)O` [compound 437, (R)-5-(3-(4-fluorophenyl)-7-(((R)-1-(4-fluorophenyl)ethyl)carbamoyl)quinoxalin-2-yl)-3-methylpentanoic acid] has a Ki of 20.1 to 200 nM. `C[C@@H](CCc1nc2cc(C(=O)N[C@H](C)c3ccc(F)cc3)ccc2nc1-c1ccc(F)cc1)CC(=O)O` [compound 438, (S)-5-(3-(4-fluorophenyl)-7-(((R)-1-(4-fluorophenyl)ethyl)carbamoyl)quinoxalin-2-yl)-3-methylpentanoic acid] gave a Ki of 2.1 to 20 nM. For `C[C@H](CCc1nc2cc(C(=O)N[C@@H]3CCCc4ccccc43)ccc2nc1-c1ccc(F)cc1)CC(=O)O` [compound 439, (R)-5-(3-(4-fluorophenyl)-7-(((R)-1,2,3,4-tetrahydronaphthalen-1-yl)carbamoyl)quinoxalin-2-yl)-3-methylpentanoic acid], the Ki was 2.1 to 20 nM. `C[C@@H](CCc1nc2cc(C(=O)N[C@@H]3CCCc4ccccc43)ccc2nc1-c1ccc(F)cc1)CC(=O)O` [compound 440, (S)-5-(3-(4-fluorophenyl)-7-(((R)-1,2,3,4-tetrahydronaphthalen-1-yl)carbamoyl)quinoxalin-2-yl)-3-methylpentanoic acid] gave a Ki of 0.1 to 2 nM. In the case of `C[C@H](CCc1nc2cc(C(=O)N[C@H](C)c3ccc(F)cc3)ccc2nc1-c1ccc(Cl)cc1)CC(=O)O` [compound 441, (R)-5-(3-(4-chlorophenyl)-7-(((R)-1-(4-fluorophenyl)ethyl)carbamoyl)quinoxalin-2-yl)-3-methylpentanoic acid], the Ki is reported as 2.1 to 20 nM. For `C[C@@H](CCc1nc2cc(C(=O)N[C@H](C)c3ccc(F)cc3)ccc2nc1-c1ccc(Cl)cc1)CC(=O)O` [compound 442], the Ki was 0.1 to 2 nM. With `O=C(NCc1ccccc1)c1ccc2nc(-c3ccc(F)cc3)c(CCCC(F)(F)C(=O)O)nc2c1` [compound 443, 5-(7-(benzylcarbamoyl)-3-(4-fluorophenyl)quinoxalin-2-yl)-2,2-difluoropentanoic acid] the Ki was 2.1 to 20 nM. With `Cc1ccc(CNC(=O)c2ccc3nc(-c4ccccc4)c(CCCC(F)(F)C(=O)O)nc3c2)cc1` [compound 444] the Ki was 20.1 to 200 nM. `O=C(O)Cc1cc(F)cc(CCc2nc3cc(C(=O)N4CCN(c5ccccc5)CC4)ccc3nc2-c2ccc(Cl)cc2)c1` [compound 445] showed a Ki of 2.1 to 20 nM. Work on `O=C(O)Cc1cc(F)cc(CCc2nc3cc(C(=O)NCc4ccc(Cl)cc4)ccc3nc2-c2ccc(Cl)cc2)c1` [compound 446] yielded a Ki of 2.1 to 20 nM.

— patent US9469615B2, “Quinoxalines and AZA-quinoxalines as CRTH2 receptor modulators” (Merck Sharp & Dohme Corp., priority 2010, dated 2016)
